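Cells were grown in 96-well plates and exposed to each compound for 48 hours at five concentrations; endpoints were interpolated linearly between bracketing concentrations, or set to the highest concentration if not reached. At the TGI there is no net growth.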
Assays:
Assay in all cases: NCI tumour cell line growth inhibition, 48 h
OVCAR-4 ovarian = test system: OVCAR-4 ovarian
SNB-75 CNS = test system: SNB-75 CNS
SF-268 CNS = test system: SF-268 CNS
RXF 393 renal = test system: RXF 393 renal
A549 NSCLC = test system: A549 NSCLC
A498 renal = test system: A498 renal
UACC-257 melanoma = test system: UACC-257 melanoma
SK-MEL-2 melanoma = test system: SK-MEL-2 melanoma
HL-60(TB) leukemia = test system: HL-60(TB) leukemia
NCI/ADR-RES ovarian = test system: NCI/ADR-RES ovarian
MDA-N = test system: MDA-N
OVCAR-8 ovarian = test system: OVCAR-8 ovarian
MALME-3M melanoma = test system: MALME-3M melanoma
MDA-MB-231 breast = test system: MDA-MB-231 breast
HT29 colon = test system: HT29 colon
KM12 colon = test system: KM12 colon
K-562 leukemia = test system: K-562 leukemia
OVCAR-5 ovarian = test system: OVCAR-5 ovarian
CCRF-CEM leukemia = test system: CCRF-CEM leukemia
ACHN renal = test system: ACHN renal
EKVX NSCLC = test system: EKVX NSCLC
NCI-H226 lung = test system: NCI-H226 lung
SF-295 CNS = test system: SF-295 CNS
MCF7 breast = test system: MCF7 breast
HS 578T breast = test system: HS 578T breast
HCT-15 colon = test system: HCT-15 colon
HCT-116 colon = test system: HCT-116 colon
BT-549 breast = test system: BT-549 breast
OVCAR-3 ovarian = test system: OVCAR-3 ovarian
U251 CNS = test system: U251 CNS
RPMI-8226 leukemia = test system: RPMI-8226 leukemia
SF-539 CNS = test system: SF-539 CNS
DU-145 prostate = test system: DU-145 prostate
SW-620 colon = test system: SW-620 colon
786-0 renal = test system: 786-0 renal
MDA-MB-435 = test system: MDA-MB-435
PC-3 prostate = test system: PC-3 prostate
NCI-H23 lung = test system: NCI-H23 lung
UACC-62 melanoma = test system: UACC-62 melanoma
SNB-19 CNS = test system: SNB-19 CNS
NCI-H460 lung = test system: NCI-H460 lung
LOX IMVI melanoma = test system: LOX IMVI melanoma
HCC-2998 colon = test system: HCC-2998 colon
HOP-92 NSCLC = test system: HOP-92 NSCLC
UO-31 renal = test system: UO-31 renal
M14 melanoma = test system: M14 melanoma
SK-OV-3 ovarian = test system: SK-OV-3 ovarian
IGROV1 ovarian = test system: IGROV1 ovarian
COLO 205 colon = test system: COLO 205 colon
SK-MEL-28 melanoma = test system: SK-MEL-28 melanoma
CAKI-1 renal = test system: CAKI-1 renal
HOP-62 NSCLC = test system: HOP-62 NSCLC
MOLT-4 leukemia = test system: MOLT-4 leukemia
T-47D breast = test system: T-47D breast
SR leukemia = test system: SR leukemia
TK-10 renal = test system: TK-10 renal
SK-MEL-5 melanoma = test system: SK-MEL-5 melanoma
SN12C renal = test system: SN12C renal
NCI-H522 lung = test system: NCI-H522 lung

SMILES: CC1OC(OC2C(O[C@H]3CC[C@@]4(C)[C@@H](CC[C@@H]5[C@@H]4CC[C@]4(C)[C@@H]6[C@H](C[C@@H]54)O[C@]4(CC[C@@H](C)CO4)[C@H]6C)C3)OC(CO)C(OC3OC(CO)C(O)C(OC4OCC(O)C(O)C4O)C3OC3OCC(O)C(O)C3O)C2O)C(O)C(O)C1O (stereo partly drawn)
- TGI (OVCAR-4 ovarian): 2.89 µM
- TGI (SNB-75 CNS): 2.86 µM
- TGI (SF-268 CNS): 3.37 µM
- TGI (RXF 393 renal): 1.85 µM
- TGI (A549 NSCLC): 1.05 µM
- TGI (A498 renal): 3.78 µM
- TGI (UACC-257 melanoma): 2.34 µM
- TGI (SK-MEL-2 melanoma): 2.27 µM
- TGI (HL-60(TB) leukemia): 1.01 µM
- TGI (NCI/ADR-RES ovarian): 3.13 µM
- TGI (MDA-N): 36.3 µM
- TGI (OVCAR-8 ovarian): 3.25 µM
- TGI (MALME-3M melanoma): 2.63 µM
- TGI (MDA-MB-231 breast): 9.57 µM
- TGI (HT29 colon): 1.71 µM
- TGI (KM12 colon): 1.92 µM
- TGI (K-562 leukemia): > 100 µM
- TGI (OVCAR-5 ovarian): 2.42 µM
- TGI (CCRF-CEM leukemia): 0.499 µM
- TGI (ACHN renal): 2.2 µM
- TGI (EKVX NSCLC): 2.95 µM
- TGI (NCI-H226 lung): 3.58 µM
- TGI (SF-295 CNS): 1.93 µM
- TGI (MCF7 breast): 0.914 µM
- TGI (HS 578T breast): 2.74 µM
- TGI (HCT-15 colon): 2.61 µM
- TGI (HCT-116 colon): 1.02 µM
- TGI (BT-549 breast): 2.36 µM
- TGI (OVCAR-3 ovarian): 3.13 µM
- TGI (U251 CNS): 1.79 µM
- TGI (RPMI-8226 leukemia): 11.4 µM
- TGI (SF-539 CNS): 1.25 µM
- TGI (DU-145 prostate): 2.73 µM
- TGI (SW-620 colon): 0.348 µM
- TGI (786-0 renal): 3.02 µM
- TGI (MDA-MB-435): 2.74 µM
- TGI (PC-3 prostate): 1.8 µM
- TGI (NCI-H23 lung): 2.93 µM
- TGI (UACC-62 melanoma): 1.77 µM
- TGI (SNB-19 CNS): 2.33 µM
- TGI (NCI-H460 lung): 2.23 µM
- TGI (LOX IMVI melanoma): 2.91 µM
- TGI (HCC-2998 colon): 3.01 µM
- TGI (HOP-92 NSCLC): 3.11 µM
- TGI (UO-31 renal): 2.44 µM
- TGI (M14 melanoma): 0.963 µM
- TGI (SK-OV-3 ovarian): 3.44 µM
- TGI (IGROV1 ovarian): 2.73 µM
- TGI (COLO 205 colon): 1.35 µM
- TGI (SK-MEL-28 melanoma): 2.04 µM
- TGI (CAKI-1 renal): 2.53 µM
- TGI (HOP-62 NSCLC): 2.03 µM

SMILES: O=C1CN2Cc3cc(N4CCOCC4)ccc3N=C2N1
- TGI (OVCAR-4 ovarian): > 100 µM
- TGI (SNB-75 CNS): > 100 µM
- TGI (RXF 393 renal): > 100 µM
- TGI (A498 renal): > 100 µM
- TGI (UACC-257 melanoma): > 100 µM
- TGI (MOLT-4 leukemia): > 100 µM
- TGI (SK-MEL-2 melanoma): > 100 µM
- TGI (HL-60(TB) leukemia): > 100 µM
- TGI (NCI/ADR-RES ovarian): > 100 µM
- TGI (OVCAR-8 ovarian): > 100 µM
- TGI (MALME-3M melanoma): > 100 µM
- TGI (MDA-MB-231 breast): > 100 µM
- TGI (HT29 colon): > 100 µM
- TGI (KM12 colon): > 100 µM
- TGI (T-47D breast): > 100 µM
- TGI (K-562 leukemia): > 100 µM
- TGI (OVCAR-5 ovarian): > 100 µM
- TGI (SR leukemia): > 100 µM
- TGI (CCRF-CEM leukemia): > 100 µM
- TGI (NCI-H226 lung): > 100 µM
- TGI (TK-10 renal): > 100 µM
- TGI (SF-295 CNS): > 100 µM
- TGI (MCF7 breast): > 100 µM
- TGI (HS 578T breast): > 100 µM
- TGI (HCT-15 colon): > 100 µM
- TGI (HCT-116 colon): > 100 µM
- TGI (BT-549 breast): > 100 µM
- TGI (OVCAR-3 ovarian): > 100 µM
- TGI (U251 CNS): > 100 µM
- TGI (RPMI-8226 leukemia): > 100 µM
- TGI (SK-MEL-5 melanoma): > 100 µM
- TGI (DU-145 prostate): > 100 µM
- TGI (SW-620 colon): > 100 µM
- TGI (MDA-MB-435): > 100 µM
- TGI (PC-3 prostate): > 100 µM
- TGI (NCI-H23 lung): > 100 µM
- TGI (UACC-62 melanoma): > 100 µM
- TGI (SNB-19 CNS): > 100 µM
- TGI (NCI-H460 lung): > 100 µM
- TGI (LOX IMVI melanoma): > 100 µM
- TGI (SN12C renal): > 100 µM
- TGI (HOP-92 NSCLC): > 100 µM
- TGI (UO-31 renal): > 100 µM
- TGI (M14 melanoma): > 100 µM
- TGI (SK-OV-3 ovarian): > 100 µM
- TGI (IGROV1 ovarian): > 100 µM
- TGI (COLO 205 colon): > 100 µM
- TGI (SK-MEL-28 melanoma): > 100 µM
- TGI (CAKI-1 renal): > 100 µM
- TGI (HOP-62 NSCLC): > 100 µM

SMILES: CCCc1cc(=O)oc2c3c(c4c(c12)OC(C)(C)C=C4)O[C@@H](C)[C@H](C)C3=O
- TGI (SNB-75 CNS): 30.7 µM
- TGI (SF-268 CNS): 45.2 µM
- TGI (A549 NSCLC): 24.5 µM
- TGI (A498 renal): 29.9 µM
- TGI (UACC-257 melanoma): 37.3 µM
- TGI (MOLT-4 leukemia): 26.8 µM
- TGI (HL-60(TB) leukemia): 33.4 µM
- TGI (NCI/ADR-RES ovarian): 35.4 µM
- TGI (MDA-N): 36.4 µM
- TGI (OVCAR-8 ovarian): 45.4 µM
- TGI (MALME-3M melanoma): 35.6 µM
- TGI (MDA-MB-231 breast): 33.2 µM
- TGI (HT29 colon): 23.2 µM
- TGI (KM12 colon): 27.9 µM
- TGI (K-562 leukemia): 27.7 µM
- TGI (OVCAR-5 ovarian): 33.2 µM
- TGI (SR leukemia): 41.6 µM
- TGI (CCRF-CEM leukemia): 48.3 µM
- TGI (ACHN renal): 24.9 µM
- TGI (EKVX NSCLC): 24.6 µM
- TGI (NCI-H226 lung): 41.6 µM
- TGI (TK-10 renal): 44.3 µM
- TGI (SF-295 CNS): 31.7 µM
- TGI (MCF7 breast): 46.3 µM
- TGI (HS 578T breast): 38.7 µM
- TGI (HCT-15 colon): 46.1 µM
- TGI (HCT-116 colon): 24.2 µM
- TGI (BT-549 breast): 29.6 µM
- TGI (OVCAR-3 ovarian): 49.1 µM
- TGI (U251 CNS): 97.6 µM
- TGI (RPMI-8226 leukemia): 31.2 µM
- TGI (SF-539 CNS): 37.4 µM
- TGI (SK-MEL-5 melanoma): 32.3 µM
- TGI (DU-145 prostate): 61.1 µM
- TGI (SW-620 colon): 32.2 µM
- TGI (786-0 renal): 38.8 µM
- TGI (MDA-MB-435): 58.8 µM
- TGI (NCI-H522 lung): 29.8 µM
- TGI (PC-3 prostate): 35.4 µM
- TGI (NCI-H23 lung): 38.4 µM
- TGI (SNB-19 CNS): 37.5 µM
- TGI (NCI-H460 lung): 44.4 µM
- TGI (LOX IMVI melanoma): 37.3 µM
- TGI (SN12C renal): 41.4 µM
- TGI (HCC-2998 colon): 34.5 µM
- TGI (UO-31 renal): 31.4 µM
- TGI (IGROV1 ovarian): 28.4 µM
- TGI (COLO 205 colon): 49.5 µM
- TGI (SK-MEL-28 melanoma): 25.7 µM
- TGI (CAKI-1 renal): 73.9 µM
- TGI (HOP-62 NSCLC): 35.5 µM

SMILES: CC1(C)CC(=O)C2=C(C1)OC1=C(C(=O)CC(C)(C)C1)C2CC(c1ccccc1)c1ccc(O)c(O)c1O (stereo not drawn)
- TGI (OVCAR-4 ovarian): > 10 µM
- TGI (SNB-75 CNS): > 10 µM
- TGI (SF-268 CNS): > 10 µM
- TGI (RXF 393 renal): > 10 µM
- TGI (A549 NSCLC): > 10 µM
- TGI (NCI/ADR-RES ovarian): > 10 µM
- TGI (MDA-N): > 10 µM
- TGI (OVCAR-8 ovarian): > 10 µM
- TGI (MDA-MB-231 breast): > 10 µM
- TGI (HT29 colon): > 10 µM
- TGI (KM12 colon): > 10 µM
- TGI (OVCAR-5 ovarian): > 10 µM
- TGI (ACHN renal): > 10 µM
- TGI (EKVX NSCLC): > 10 µM
- TGI (NCI-H226 lung): > 10 µM
- TGI (TK-10 renal): > 10 µM
- TGI (SF-295 CNS): > 10 µM
- TGI (HCT-15 colon): > 10 µM
- TGI (HCT-116 colon): > 10 µM
- TGI (OVCAR-3 ovarian): > 10 µM
- TGI (U251 CNS): > 10 µM
- TGI (SF-539 CNS): > 10 µM
- TGI (SK-MEL-5 melanoma): > 10 µM
- TGI (DU-145 prostate): > 10 µM
- TGI (SW-620 colon): > 10 µM
- TGI (MDA-MB-435): > 10 µM
- TGI (PC-3 prostate): > 10 µM
- TGI (NCI-H23 lung): > 10 µM
- TGI (SNB-19 CNS): > 10 µM
- TGI (SN12C renal): > 10 µM
- TGI (HOP-92 NSCLC): > 10 µM
- TGI (UO-31 renal): > 10 µM
- TGI (M14 melanoma): > 10 µM
- TGI (IGROV1 ovarian): > 10 µM
- TGI (CAKI-1 renal): > 10 µM

Reference: PubChem BioAssay (NCI)
